Assay results taken from patent publication US10286504B2, “Synthesis of paracetamol (acetaminophen) from biomass-derived p-hydroxybenzamide” (Wisconsin Alumni Research Foundation, priority 2017, dated 2019).
Converted amounts (≈) assume the structure as drawn.

Experiment: solubility of acetaminophen in recrystallisation solvent (50% water and 50% methanol)
Assay type: physicochemical
Conditions: aqueous with cosolvent or surfactant or cyclodextrin; solvent mixture of 50% water and 50% methanol by volume, heated to near boiling
Protocol: Heat the reaction mixture at about 115° C. with stirring for about 10 minutes to complete the reaction. Once complete, cool the mixture thoroughly in an ice bath for 15-20 minutes and collect the crystals by vacuum filtration on a Hirsch funnel. To decolorize the crude product, dissolve 0.2 g of sodium dithionite (sodium hydrosulfite) in 1.5 mL of water in a 5-mL conical vial. Add the crude acetaminophen to the vial. Heat the mixture at about 100° C. for 15 minutes, with occasional stirring. Cool the mixture to precipitate the decolorized acetaminophen. To purify the decolorized product, dissolve the material in a solvent mixture composed of 50% water and 50% methanol by volume, heated to boiling. The solubility of acetaminophen in the near-boiling solvent is about 0.2 g/mL. Cool the solution to precipitate the acetaminophen.

`CC(=O)Nc1ccc(O)cc1` [acetaminophen, N-acetyl-p-aminophenol] gave a solubility of roughly 200 mg/mL (≈ 1320 mM).
